{"source": "ChEMBL document CHEMBL1201862", "about": "“PubChem BioAssay data set” (2004)", "key": {"[1]": {"target": "Envelope glycoprotein gp160 (Human immunodeficiency virus 1, UniProt Q6QLK5)", "sequence (Q6QLK5 whole entry, the tested form may be a part)": "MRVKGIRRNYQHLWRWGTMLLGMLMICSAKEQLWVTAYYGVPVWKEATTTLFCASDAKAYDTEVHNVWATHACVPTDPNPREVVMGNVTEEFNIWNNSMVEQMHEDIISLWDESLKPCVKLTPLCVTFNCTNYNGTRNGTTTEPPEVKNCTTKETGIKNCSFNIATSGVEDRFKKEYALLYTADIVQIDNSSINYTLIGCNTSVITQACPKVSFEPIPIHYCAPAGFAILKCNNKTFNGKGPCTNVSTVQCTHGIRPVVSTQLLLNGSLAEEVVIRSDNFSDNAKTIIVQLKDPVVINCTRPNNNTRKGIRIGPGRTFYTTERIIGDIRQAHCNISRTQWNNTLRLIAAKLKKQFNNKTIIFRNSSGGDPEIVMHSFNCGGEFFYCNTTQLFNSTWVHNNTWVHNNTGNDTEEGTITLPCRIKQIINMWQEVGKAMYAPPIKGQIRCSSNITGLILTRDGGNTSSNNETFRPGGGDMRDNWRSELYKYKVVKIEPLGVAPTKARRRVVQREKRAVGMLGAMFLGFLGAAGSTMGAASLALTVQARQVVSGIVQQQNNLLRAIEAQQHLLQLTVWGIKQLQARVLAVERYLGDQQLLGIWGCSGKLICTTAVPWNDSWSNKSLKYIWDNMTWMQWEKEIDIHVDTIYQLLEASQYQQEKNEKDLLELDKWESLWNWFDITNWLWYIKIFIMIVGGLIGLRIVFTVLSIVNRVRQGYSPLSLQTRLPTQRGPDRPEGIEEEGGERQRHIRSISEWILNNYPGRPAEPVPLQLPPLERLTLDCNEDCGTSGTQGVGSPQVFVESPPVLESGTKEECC", "assay": "inhibitors of HIV fusion peptide binding, primary screen, biochemical, uHTS, fluorescence dequenching (AID 1986)"}, "Leucine aminopeptidase": {"target": "T1, Leucine aminopeptidase (Plasmodium falciparum 3D7, UniProt Q8IL11)", "T1 sequence (Q8IL11 whole entry)": "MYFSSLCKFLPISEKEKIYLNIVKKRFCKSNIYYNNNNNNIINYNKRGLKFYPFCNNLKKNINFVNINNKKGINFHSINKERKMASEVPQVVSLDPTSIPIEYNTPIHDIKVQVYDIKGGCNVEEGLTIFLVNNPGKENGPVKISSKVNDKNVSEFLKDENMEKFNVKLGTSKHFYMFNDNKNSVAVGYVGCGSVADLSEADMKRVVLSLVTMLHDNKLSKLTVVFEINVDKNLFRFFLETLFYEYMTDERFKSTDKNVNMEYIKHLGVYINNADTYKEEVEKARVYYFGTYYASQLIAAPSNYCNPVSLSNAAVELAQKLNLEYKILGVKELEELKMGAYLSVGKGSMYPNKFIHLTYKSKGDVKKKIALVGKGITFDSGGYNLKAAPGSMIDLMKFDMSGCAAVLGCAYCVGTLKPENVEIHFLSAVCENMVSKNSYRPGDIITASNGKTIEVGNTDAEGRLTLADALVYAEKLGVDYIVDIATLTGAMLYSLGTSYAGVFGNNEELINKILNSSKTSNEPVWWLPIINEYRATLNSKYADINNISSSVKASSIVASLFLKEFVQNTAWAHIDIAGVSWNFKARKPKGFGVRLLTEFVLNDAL", "assay": "P. falciparum M17LAP inhibitors, primary screen, biochemical, fluorogenic H-Leu-NHMec substrate, 1536-well (AID 1619)", "assay_type": "functional"}, "[2]": {"test_system": "Streptococcus sp. 'group A'", "assay": "growth inhibition of control SK(-) GAS strain, dose response, counter-screen for streptokinase expression inhibitor project, luminescence, kanamycin, BacTiterGlo, confirmation (AID 1900)", "assay_type": "functional, organism-based"}, "[3]": {"assay": "SNU-C1 cell viability reduction, dose response, CellTiter-Glo luminescence (AID 1117323)", "assay_type": "functional, cell-based"}, "[4]": {"target": "Protein kinase C theta type (Homo sapiens, UniProt Q04759)", "sequence (Q04759 whole entry)": "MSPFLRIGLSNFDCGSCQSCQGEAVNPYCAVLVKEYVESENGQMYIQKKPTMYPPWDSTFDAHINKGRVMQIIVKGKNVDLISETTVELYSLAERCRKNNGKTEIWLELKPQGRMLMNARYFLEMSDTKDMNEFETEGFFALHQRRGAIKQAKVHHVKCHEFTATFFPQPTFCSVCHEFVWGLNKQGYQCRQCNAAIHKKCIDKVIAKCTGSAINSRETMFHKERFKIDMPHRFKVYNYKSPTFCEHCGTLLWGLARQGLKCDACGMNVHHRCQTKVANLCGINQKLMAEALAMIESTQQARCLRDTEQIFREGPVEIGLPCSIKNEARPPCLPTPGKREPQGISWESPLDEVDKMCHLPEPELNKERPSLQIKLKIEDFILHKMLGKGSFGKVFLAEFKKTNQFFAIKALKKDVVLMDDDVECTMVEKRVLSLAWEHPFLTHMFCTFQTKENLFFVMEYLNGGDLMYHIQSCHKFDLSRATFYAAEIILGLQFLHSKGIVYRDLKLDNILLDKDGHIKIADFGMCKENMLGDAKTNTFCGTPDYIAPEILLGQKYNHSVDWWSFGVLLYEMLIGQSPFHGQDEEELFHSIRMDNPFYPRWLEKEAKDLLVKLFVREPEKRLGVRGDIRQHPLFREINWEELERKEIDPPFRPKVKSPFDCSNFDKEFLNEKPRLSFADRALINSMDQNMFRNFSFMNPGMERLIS", "assay": "Navigating the Kinome. Panel member name: PRKCQ", "assay_type": "functional"}, "[5]": {"target": "Mitogen-activated protein kinase 9 (Homo sapiens, UniProt P45984)", "sequence (P45984 whole entry)": "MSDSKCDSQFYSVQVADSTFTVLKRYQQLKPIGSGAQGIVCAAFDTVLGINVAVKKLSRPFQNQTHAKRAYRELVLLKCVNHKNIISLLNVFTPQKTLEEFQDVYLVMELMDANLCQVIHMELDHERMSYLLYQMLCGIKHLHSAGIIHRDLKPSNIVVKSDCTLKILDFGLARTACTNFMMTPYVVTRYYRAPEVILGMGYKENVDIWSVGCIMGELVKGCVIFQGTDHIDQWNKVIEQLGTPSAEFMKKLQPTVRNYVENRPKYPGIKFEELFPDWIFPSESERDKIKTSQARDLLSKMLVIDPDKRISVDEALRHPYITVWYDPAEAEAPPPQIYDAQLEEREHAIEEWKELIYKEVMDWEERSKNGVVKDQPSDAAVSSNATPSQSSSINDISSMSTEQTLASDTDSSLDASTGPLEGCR", "assay_type": "functional"}, "[6]": {"target": "Mitogen-activated protein kinase 1 (Homo sapiens, UniProt P28482)", "sequence (P28482 whole entry)": "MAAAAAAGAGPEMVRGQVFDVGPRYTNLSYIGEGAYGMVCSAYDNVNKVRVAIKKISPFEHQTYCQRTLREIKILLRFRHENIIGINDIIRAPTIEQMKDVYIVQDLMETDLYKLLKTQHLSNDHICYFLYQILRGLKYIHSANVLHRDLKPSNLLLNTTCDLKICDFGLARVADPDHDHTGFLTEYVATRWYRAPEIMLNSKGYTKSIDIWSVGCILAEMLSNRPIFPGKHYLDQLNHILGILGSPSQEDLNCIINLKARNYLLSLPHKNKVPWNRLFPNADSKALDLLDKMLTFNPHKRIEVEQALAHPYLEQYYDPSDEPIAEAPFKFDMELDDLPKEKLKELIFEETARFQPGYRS", "assay_type": "functional"}, "[7]": {"target": "Interleukin-1 receptor-associated kinase 4 (Homo sapiens, UniProt Q9NWZ3)", "sequence (Q9NWZ3 whole entry)": "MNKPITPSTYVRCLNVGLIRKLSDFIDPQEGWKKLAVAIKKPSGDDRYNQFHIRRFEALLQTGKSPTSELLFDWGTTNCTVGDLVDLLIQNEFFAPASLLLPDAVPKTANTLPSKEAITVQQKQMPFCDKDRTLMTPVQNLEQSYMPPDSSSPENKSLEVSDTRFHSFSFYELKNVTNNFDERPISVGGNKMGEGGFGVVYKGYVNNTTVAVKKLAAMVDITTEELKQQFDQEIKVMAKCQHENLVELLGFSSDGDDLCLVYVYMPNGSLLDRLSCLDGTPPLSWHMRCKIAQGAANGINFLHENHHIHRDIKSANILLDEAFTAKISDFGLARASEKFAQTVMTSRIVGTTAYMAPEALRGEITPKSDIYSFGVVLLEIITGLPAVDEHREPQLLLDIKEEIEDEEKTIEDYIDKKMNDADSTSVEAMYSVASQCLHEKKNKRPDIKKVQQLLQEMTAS", "assay_type": "functional"}, "[8]": {"target": "Vascular endothelial growth factor receptor 3 (Homo sapiens, UniProt P35916)", "sequence (P35916 whole entry)": "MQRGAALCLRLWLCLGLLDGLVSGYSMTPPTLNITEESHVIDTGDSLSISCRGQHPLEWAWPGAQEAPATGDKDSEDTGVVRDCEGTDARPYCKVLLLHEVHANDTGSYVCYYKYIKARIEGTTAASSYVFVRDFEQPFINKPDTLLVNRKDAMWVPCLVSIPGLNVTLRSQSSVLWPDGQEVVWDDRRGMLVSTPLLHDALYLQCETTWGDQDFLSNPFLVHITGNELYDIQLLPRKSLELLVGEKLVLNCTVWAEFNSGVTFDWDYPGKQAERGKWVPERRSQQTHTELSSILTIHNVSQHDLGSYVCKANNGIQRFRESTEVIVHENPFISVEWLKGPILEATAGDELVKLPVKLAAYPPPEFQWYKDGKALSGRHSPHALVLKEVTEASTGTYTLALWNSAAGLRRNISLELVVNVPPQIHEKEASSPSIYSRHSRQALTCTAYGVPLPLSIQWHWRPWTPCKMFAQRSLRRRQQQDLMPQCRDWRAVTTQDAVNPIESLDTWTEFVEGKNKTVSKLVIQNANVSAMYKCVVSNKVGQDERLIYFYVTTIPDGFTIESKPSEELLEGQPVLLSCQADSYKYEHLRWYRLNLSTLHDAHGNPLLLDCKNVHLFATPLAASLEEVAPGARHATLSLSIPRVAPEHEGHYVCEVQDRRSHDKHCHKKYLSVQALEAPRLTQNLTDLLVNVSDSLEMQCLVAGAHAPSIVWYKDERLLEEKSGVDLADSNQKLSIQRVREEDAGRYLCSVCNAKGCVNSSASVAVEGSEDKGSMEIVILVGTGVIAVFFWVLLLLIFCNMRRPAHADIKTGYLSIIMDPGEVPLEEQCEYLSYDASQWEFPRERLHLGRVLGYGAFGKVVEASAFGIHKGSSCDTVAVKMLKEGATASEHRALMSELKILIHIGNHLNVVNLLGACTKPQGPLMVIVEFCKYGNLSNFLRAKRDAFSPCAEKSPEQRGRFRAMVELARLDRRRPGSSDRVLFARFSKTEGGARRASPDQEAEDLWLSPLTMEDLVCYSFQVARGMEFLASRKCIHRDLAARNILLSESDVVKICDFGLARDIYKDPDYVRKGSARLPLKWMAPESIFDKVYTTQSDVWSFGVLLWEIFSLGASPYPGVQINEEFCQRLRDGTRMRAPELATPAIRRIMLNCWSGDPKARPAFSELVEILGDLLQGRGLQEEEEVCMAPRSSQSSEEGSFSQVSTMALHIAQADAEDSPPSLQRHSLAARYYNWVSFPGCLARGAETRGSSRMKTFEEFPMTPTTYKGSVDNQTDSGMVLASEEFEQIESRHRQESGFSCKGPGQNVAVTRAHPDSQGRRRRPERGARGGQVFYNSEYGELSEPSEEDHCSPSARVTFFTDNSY", "assay_type": "functional"}, "[9]": {"target": "Rho-associated protein kinase 1 (Homo sapiens, UniProt Q13464)", "assay_type": "functional"}, "[10]": {"target": "Tyrosine-protein kinase FRK (Homo sapiens, UniProt P42685)", "sequence (P42685 whole entry)": "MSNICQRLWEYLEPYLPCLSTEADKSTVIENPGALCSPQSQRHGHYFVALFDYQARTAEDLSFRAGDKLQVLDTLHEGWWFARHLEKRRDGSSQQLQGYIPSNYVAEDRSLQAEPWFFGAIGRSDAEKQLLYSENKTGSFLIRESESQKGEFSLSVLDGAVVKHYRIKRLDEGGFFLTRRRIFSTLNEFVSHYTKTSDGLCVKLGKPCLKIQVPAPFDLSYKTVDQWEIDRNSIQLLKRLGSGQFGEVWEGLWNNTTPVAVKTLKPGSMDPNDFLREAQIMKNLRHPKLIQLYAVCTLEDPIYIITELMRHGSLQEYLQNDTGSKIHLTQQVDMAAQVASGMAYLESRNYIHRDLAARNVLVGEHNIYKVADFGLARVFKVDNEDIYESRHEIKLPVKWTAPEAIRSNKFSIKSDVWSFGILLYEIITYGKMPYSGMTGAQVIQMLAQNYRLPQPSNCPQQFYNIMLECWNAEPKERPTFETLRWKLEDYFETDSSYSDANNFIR", "assay_type": "functional"}, "[11]": {"target": "Tyrosyl-DNA phosphodiesterase 2 (Homo sapiens, UniProt O95551)", "sequence (O95551 whole entry)": "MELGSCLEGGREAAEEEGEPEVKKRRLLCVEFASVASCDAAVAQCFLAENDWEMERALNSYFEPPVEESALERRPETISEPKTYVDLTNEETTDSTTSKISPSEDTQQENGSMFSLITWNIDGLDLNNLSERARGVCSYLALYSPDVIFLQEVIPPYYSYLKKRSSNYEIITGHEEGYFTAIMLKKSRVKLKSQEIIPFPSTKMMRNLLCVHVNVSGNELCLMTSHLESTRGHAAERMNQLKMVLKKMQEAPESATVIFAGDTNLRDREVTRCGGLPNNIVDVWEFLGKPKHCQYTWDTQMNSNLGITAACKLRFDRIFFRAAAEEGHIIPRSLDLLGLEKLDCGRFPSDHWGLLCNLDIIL", "assay": "human TDP2 enzyme inhibitors, dose response, biochemical, epi absorbance, IC50 (AID 743297)"}}, "note": "Activity calls are given as the source filed them.", "data": [{"smiles": "CCc1oc2ccccc2c1C(=O)c1cc(Br)c(O)c(Br)c1", "note": "[BENZBROMARONE]", "values": [{"measurement": "IC50", "setting": "[1]", "result": "12.8 µM (active)"}, {"measurement": "IC50", "setting": "Leucine aminopeptidase", "result": "81.9 µM (active)"}, {"measurement": "EC50", "setting": "[2]", "result": "7.44 µM (active)"}, {"measurement": "IC50", "setting": "[3]", "result": "0.105 µM (active)"}]}, {"smiles": "N#Cc1ccc2[nH]c(O)c(-c3ccc(CN4CCOCC4)cn3)c2c1", "note": "[AZD-1080]", "values": [{"measurement": "Ki", "setting": "[4]", "result": "> 2.51 µM (inactive)"}, {"measurement": "Ki", "setting": "[5]", "result": "> 3.98 µM (inactive)"}, {"measurement": "Ki", "setting": "[6]", "result": "> 7.94 µM (inactive)"}, {"measurement": "Ki", "setting": "[7]", "result": "> 10 µM (inactive)"}, {"measurement": "Ki", "setting": "[8]", "result": "> 6.31 µM (inactive)"}, {"measurement": "Ki", "setting": "[9]", "result": "> 7.94 µM (inactive)"}, {"measurement": "Ki", "setting": "[10]", "result": "> 2.51 µM (inactive)"}]}, {"smiles": "O=C1C=C(N2CCOCC2)c2ccccc2C1=O", "values": [{"measurement": "IC50", "setting": "[11]", "result": "2.55 µM (active)"}]}]}
